Values of other authors, collected in patent US6683065B1, “Method of treating body insect infestation” (Host Pharmaceuticals LLC, priority 1999, dated 2004).

Details: at 20° C.

Substance	Surface Tension
n-fluoroalkanes	25.9^1 dynes/cm
n-alkanes	37.8^1 dynes/cm
